Article PMC11472313, “Development of Fragment-Based Inhibitors of the Bacterial Deacetylase LpxC with Low Nanomolar Activity” (Journal of Medicinal Chemistry, 2024)
In brackets after ≈: the same amount, converted by molar mass.

Columns and labels:
[1] = metabolic stability in mouse liver S9 fractions; assay type: in vitro ADME; conditions: pooled liver S9 fraction, 1 μM compound, 1 mg/mL S9, phase I and II cofactors; for half-life at 1 μM: read-out: metabolic stability in mouse liver S9 fractions t1/2
Experimental: For the evaluation of combined phase I and phase II metabolic stability, the compound (1 μM) was incubated with 1 mg/mL pooled mouse liver S9 fraction (Xenotech, Kansas City, USA), 2 mM nicotinamide adenine dinucleotide phosphate hydrogen (NADPH), 1 mM UDPGA, 10 mM MgCl2, 5 mM glutathione (GSH), and 0.1 mM 3′-phosphoadenosine 5′-phosphosulfate (PAPS) at 37 °C for 120 min. The metabolic stability of testosterone, verapamil, and ketoconazole were determined in parallel to confirm the enzymatic activity of mouse S9 fractions. The incubation was stopped after defined time points by precipitation of aliquots of S9 enzymes with 2 volumes of cold acetonitrile containing internal standard (150 nM diphenhydramine). Samples were stored on ice until the end of the incubation and the precipitated protein was removed by centrifugation (15 min, 4 °C, 4000g). Concentration of the remaining test compound at the different time points was analyzed by HPLC–MS/MS (TSQ Quantum Access Max, Thermo Fisher, Dreieich, Germany) and used to determine half-life (t1/2).

MMP3 = molecular target: T1, MMP3 (Homo sapiens, UniProt P08254); experiment: MMP3 inhibition (SensoLyte 520 Generic MMP Activity Kit); assay type: biochemical; conditions: read-out: MMP3 (% inhibition at 100 μM)
T1 construct: purchased AnaSpec (Fremont, CA, USA)
Experimental: (§1) Since LpxC and LasB are zinc-dependent enzymes, we investigated potential off-target activity of the three frontrunners on mammalian zinc-dependent enzymes. Our panel comprised three representative matrix-metalloproteases (MMP1–3) and tumor necrosis factor-α converting enzyme (TACE, also known as ADAM17) (Table 6).
(§2) Purification of LasB from P. aeruginosa PA14 supernatant and the subsequent performance of the FRET-based in vitro inhibition assay was performed as described previously.[66] The TACE (ADAM-17) inhibitor screening kit was purchased from Sigma-Aldrich (Saint Louis, MO). MMPs 1–3 along with the SensoLyte 520 Generic MMP Activity Kit Fluorimetric were purchased from AnaSpec (Fremont, CA, USA). The assays were performed according to the guidelines of the respective manufacturer. Fluorescence signals were measured using a CLARIOstar plate reader (BMG Labtech, Ortenberg, Germany).

[2] = microsomal metabolic stability, human; assay type: in vitro ADME; conditions: human liver microsomes; for half-life: read-out: microsomal metabolic stability t1/2
Experimental: (§3) Also, the plasma stability of the compounds in mouse plasma was generally low with half-lives between 22.9 min [(S)-13h] and 43.1 min [(S)-13j].
(§4) The microsomal metabolic stability assay as well as the plasma protein binding assay were conducted as described previously.[78]
(§5) Samples were analyzed using an Agilent 1290 Infinity II HPLC system coupled to an AB Sciex QTrap 6500plus mass spectrometer. LC conditions were as follows: column: Agilent Zorbax Eclipse Plus C18, 50 × 2.1 mm, 1.8 μm; temperature: 30 °C; injection volume: 5 μL per sample; flow rate: 700 μL min^–1. Samples were run under acidic conditions. Solvents: (A) water + 0.1% formic acid; (B) 95% acetonitrile/5% H2O + 0.1% formic acid. Gradient elution: (A %): 0–0.1 min: 99%, 0.1–3.5 min: gradient from 99 to 50%, 3.5–3.8 min: gradient from 50 to 0%, 3.8–4.7 min: gradient from 0 to 99%. Mass transitions for controls and compounds are depicted in Table S3.

MMP2 = molecular target: T2, MMP2 (Homo sapiens, UniProt P08253); experiment: MMP2 inhibition (SensoLyte 520 Generic MMP Activity Kit); assay type: biochemical; conditions: for inhibition at 100 µM: read-out: MMP2 (% inhibition at 100 μM), 100 μM
T2 construct: purchased AnaSpec (Fremont, CA, USA)
T2 sequence (P08253 110-660): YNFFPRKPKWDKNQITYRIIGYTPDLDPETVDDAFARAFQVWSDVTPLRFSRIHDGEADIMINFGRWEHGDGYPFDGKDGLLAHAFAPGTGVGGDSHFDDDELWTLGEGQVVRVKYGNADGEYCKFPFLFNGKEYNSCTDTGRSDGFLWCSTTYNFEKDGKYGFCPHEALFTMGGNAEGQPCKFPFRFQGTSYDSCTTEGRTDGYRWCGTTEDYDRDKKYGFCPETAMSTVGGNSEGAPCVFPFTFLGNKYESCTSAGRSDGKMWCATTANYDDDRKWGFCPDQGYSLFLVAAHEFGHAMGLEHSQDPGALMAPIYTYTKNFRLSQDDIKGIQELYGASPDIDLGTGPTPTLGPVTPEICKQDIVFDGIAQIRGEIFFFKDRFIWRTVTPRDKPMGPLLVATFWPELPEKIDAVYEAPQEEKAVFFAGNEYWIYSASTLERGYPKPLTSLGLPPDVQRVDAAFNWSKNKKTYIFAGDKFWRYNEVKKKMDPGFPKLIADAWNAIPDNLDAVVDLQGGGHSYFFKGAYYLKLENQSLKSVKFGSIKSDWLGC
Experimental: as §1, §2

[3] = microsomal metabolic stability, mouse; assay type: in vitro ADME; conditions: for microsomal CLint: mouse liver microsomes; for half-life: mouse, liver microsomes, read-out: microsomal metabolic stability t1/2
Experimental: as §3, §4, §5

[4] = plasma protein binding, mouse; assay type: in vitro ADME; conditions: for fraction unbound: plasma
Experimental: as §4

[5] = plasma protein binding, human; assay type: in vitro ADME
Experimental: as §4

MMP1 = molecular target: T3, MMP1 (Homo sapiens, UniProt P03956); experiment: MMP1 inhibition (SensoLyte 520 Generic MMP Activity Kit); assay type: biochemical; conditions: read-out: MMP1 (% inhibition at 100 μM)
T3 construct: purchased AnaSpec (Fremont, CA, USA)
T3 sequence (P03956 100-469): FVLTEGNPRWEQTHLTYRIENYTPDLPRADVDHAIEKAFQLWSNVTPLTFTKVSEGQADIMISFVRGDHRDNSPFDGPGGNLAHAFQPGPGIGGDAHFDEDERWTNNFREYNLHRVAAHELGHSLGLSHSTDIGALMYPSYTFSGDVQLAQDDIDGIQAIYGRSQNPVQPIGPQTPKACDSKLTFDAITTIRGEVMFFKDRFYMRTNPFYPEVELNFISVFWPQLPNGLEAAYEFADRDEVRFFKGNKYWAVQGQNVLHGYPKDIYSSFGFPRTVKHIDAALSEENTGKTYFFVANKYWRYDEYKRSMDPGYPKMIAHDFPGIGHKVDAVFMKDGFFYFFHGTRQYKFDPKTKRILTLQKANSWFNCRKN
Experimental: as §1, §2

[6] = kinetic turbidimetric solubility; assay type: physicochemical; conditions: PBS with 1% DMSO, Kinetic solubility (1% DMSO/PBS)
Experimental: The desired compounds were sequentially diluted in DMSO in a 96-well plate. 1.5 μL from each well was transferred into another 96-well plate and mixed with 148.5 μL of PBS. Plates were shaken for 5 min at 600 rpm at room temperature, and the absorbance at 620 nm was measured. Absorbance values were normalized by blank subtraction and plotted using GraphPad Prism 8.4.2 (GraphPad Software, San Diego, CA, USA). Solubility (S) was determined based on the First X value of AUC function using a threshold of 0.005.

T1 sequence (P08254 100-477, species assumed): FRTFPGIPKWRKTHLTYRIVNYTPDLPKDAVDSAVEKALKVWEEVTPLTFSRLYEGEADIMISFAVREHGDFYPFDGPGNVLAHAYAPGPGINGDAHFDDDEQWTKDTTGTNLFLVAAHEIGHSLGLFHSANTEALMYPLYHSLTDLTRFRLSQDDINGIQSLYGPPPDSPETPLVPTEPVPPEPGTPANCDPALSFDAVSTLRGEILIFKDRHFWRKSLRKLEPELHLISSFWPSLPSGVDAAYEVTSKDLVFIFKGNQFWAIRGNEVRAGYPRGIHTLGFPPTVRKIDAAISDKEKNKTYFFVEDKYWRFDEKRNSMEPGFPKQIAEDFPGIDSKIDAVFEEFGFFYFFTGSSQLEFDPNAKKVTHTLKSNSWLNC

Structure (SMILES): O=C(NC[C@H](OCc1ccc(C#Cc2ccc(CN3CCOCC3)cc2)cc1)C(=O)NO)c1c[nH]c2ccccc12 [(S)-13h]
- microsomal CLint at 1 μM [1]: ~45 µL/min/mg
- half-life at 1 μM [1]: 15.5 ± 1 min
- inhibition at 100 µM (MMP3): < 10%
- microsomal CLint [2]: < 23 µL/min/mg
- half-life [2]: > 60 min
- inhibition at 100 µM (MMP2): 15 ± 3%
- microsomal CLint [3]: < 23 µL/min/mg
- half-life [3]: > 60 min
- fraction unbound [4]: 0.0541
- fraction unbound [5]: 0.0175
- inhibition at 100 µM (MMP1): 15 ± 7%
- solubility kinetic at 5 min [6]: 53.5 ± 1.9 µM (≈ 29.6 µg/mL)

Structure (SMILES): O=C(NC[C@H](OCc1ccc(C#Cc2ccc(CN3CCOCC3)cc2)cc1)C(=O)NO)c1ccc2[nH]ccc2c1 [(S)-13j]
- microsomal CLint at 1 μM [1]: 27.6 ± 2.7 µL/min/mg
- half-life at 1 μM [1]: 25.5 ± 2.7 min
- inhibition at 100 µM (MMP3): 16 ± 1%
- microsomal CLint [2]: < 23 µL/min/mg
- half-life [2]: > 60 min
- MMP2 (% inhibition at 100 μM) (MMP2; 100 μM): 47 ± 3%
- inhibition at 100 µM (MMP2): ~50%
- microsomal CLint [3]: < 23 µL/min/mg
- half-life [3]: > 60 min
- fraction unbound [4]: 0.0795
- fraction unbound [5]: 0.0205
- inhibition at 100 µM (MMP1): < 10%
- solubility kinetic at 5 min [6]: 46 ± 11 µM (≈ 25.4 µg/mL)

Structure (SMILES): O=C(NC[C@H](OCc1ccc(C#Cc2ccc(CN3CCOCC3)cc2)cc1)C(=O)NO)c1cc[nH]n1 [(S)-13l]
- microsomal CLint at 1 μM [1]: 10.9 ± 0.9 µL/min/mg
- half-life at 1 μM [1]: > 60 min
- inhibition at 100 µM (MMP3): 19 ± 2%
- microsomal CLint [2]: < 23 µL/min/mg
- half-life [2]: > 60 min
- IC50 (MMP2): 67 µM
- selectivity factor for MMP2 (MMP2; MMP2 versus LpxC): 105
- inhibition at 100 µM (MMP2): 65 ± 4%
- microsomal CLint [3]: 26 µL/min/mg
- half-life [3]: ~53 min
- plasma protein binding mouse [4]: 79.42 ± 2.5%
- fraction unbound [4]: > 0.2
- fraction unbound [5]: 0.0224
- inhibition at 100 µM (MMP1): 11 ± 6%
- solubility kinetic at 5 min [6]: ≥ 100 µM
